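1) Cells in 96-well plates. 2) Compound, 48 h, 5 concentrations. 3) Linear interpolation between surrounding doses. 4) Unreached endpoint = highest concentration. At the GI50, growth is halved. The concentration for full growth arrest is given as TGI.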

Some test systems named below: KM12 colon; LOX IMVI melanoma; MALME-3M melanoma; MDA-MB-435; MOLT-4 leukemia; NCI/ADR-RES ovarian; RXF 393 renal; SF-268 CNS; TK-10 renal; CAKI-1 renal.
Common to all, as to assay: NCI anticancer screen, dose series, 48 h

`CC[C@@H]1[C@@H](C)O[C@@](O)([C@@H](C)[C@H](O)[C@H](C)[C@H]2OC(=O)/C=C/C=C/[C@H](C)[C@@H]([C@@H](C)[C@@H](O)[C@H](C)[C@@]3(O)C[C@@H](O[C@H]4C[C@@H](O)[C@H](O)C(C)O4)[C@H](CC)[C@@H](C)O3)OC(=O)/C=C/C=C/[C@@H]2C)C[C@H]1O[C@@H]1C[C@@H](O)[C@H](O)C(C)O1` (stereo not given in full): the GI50 was 0.125 µM with KM12 colon; 0.0611 µM with LOX IMVI melanoma; 0.0857 µM in the assay with MALME-3M melanoma; 0.0867 µM in the assay with MDA-MB-435; 0.0933 µM with MOLT-4 leukemia; 1.05 µM in the assay on NCI/ADR-RES ovarian. Besides, the results for the GI50 in the assay with RXF 393 renal, in the assay on SF-268 CNS and in the assay with TK-10 renal were 0.0521 µM, 0.0698 µM and 0.0746 µM, respectively. The TGI with KM12 colon came to 0.413 µM; with LOX IMVI melanoma, 0.117 µM; in the assay with MALME-3M melanoma it was 0.234 µM; in the assay on MDA-MB-435, 0.261 µM; in the assay with MOLT-4 leukemia it was 0.219 µM; in the assay on NCI/ADR-RES ovarian, 7.04 µM. For the same molecule, the TGI with RXF 393 renal is 0.119 µM; with SF-268 CNS it was 0.175 µM; in the assay on TK-10 renal it was 0.212 µM.
`CSc1ccc(-c2ccccc(=O)c2O)cc1`: the GI50 is 0.508 µM in the assay with KM12 colon; 0.336 µM in the assay with LOX IMVI melanoma; 2.41 µM in the assay on MALME-3M melanoma; 0.646 µM in the assay on MDA-MB-435; 0.348 µM in the assay with MOLT-4 leukemia; 0.278 µM in the assay on NCI/ADR-RES ovarian. Further, the values for the GI50 in the assay with RXF 393 renal, in the assay on SF-268 CNS and in the assay on TK-10 renal were 0.976 µM, 0.625 µM and 0.593 µM, respectively. Also, the TGI is > 100 µM with KM12 colon; 17.1 µM in the assay on LOX IMVI melanoma; > 100 µM in the assay with MALME-3M melanoma; > 100 µM with MDA-MB-435; > 100 µM in the assay with MOLT-4 leukemia; 2.12 µM in the assay on NCI/ADR-RES ovarian. For the same molecule, the figures for the TGI in the assay with RXF 393 renal, in the assay with SF-268 CNS and with TK-10 renal were 16.2 µM, > 100 µM and > 100 µM, respectively.
`O=C(COc1ccc(/C=C2\COc3ccccc3C2=O)cc1)Nc1nccs1`: the GI50 with CAKI-1 renal is 7.55 µM; with KM12 colon it was 3.28 µM; with LOX IMVI melanoma, 2.64 µM; with MALME-3M melanoma, 16.3 µM; with MDA-MB-435, 3.56 µM; with MOLT-4 leukemia it was 1.6 µM. Also, the values for the GI50 with NCI/ADR-RES ovarian, in the assay with SF-268 CNS and with TK-10 renal were 24.7 µM, 6.81 µM and 28.7 µM, respectively. Also, the TGI in the assay on CAKI-1 renal is 20.7 µM; in the assay with KM12 colon it was 10.5 µM; in the assay with LOX IMVI melanoma, 7.33 µM; with MALME-3M melanoma, 36.2 µM; in the assay with MDA-MB-435, 18.4 µM; in the assay with MOLT-4 leukemia, 3.76 µM. Also, the figures for the TGI in the assay on NCI/ADR-RES ovarian, in the assay on SF-268 CNS and in the assay with TK-10 renal were > 100 µM, 21.7 µM and 58.5 µM, respectively.
As to `C=CCC(N[C@@H](CO)c1ccccc1)c1cn(Cc2ccccc2Cl)c(=O)n(Cc2ccccc2Cl)c1=O` (stereo not given in full), the GI50 in the assay on CAKI-1 renal was 73.6 µM; in the assay on KM12 colon, > 100 µM; with LOX IMVI melanoma it was > 100 µM; in the assay on MALME-3M melanoma, > 100 µM; in the assay with MDA-MB-435 it was > 100 µM; in the assay on NCI/ADR-RES ovarian, > 100 µM. Besides, the GI50 with RXF 393 renal, in the assay with SF-268 CNS and with TK-10 renal was > 100 µM in each case. In addition, the TGI in the assay with CAKI-1 renal, in the assay with KM12 colon, in the assay with LOX IMVI melanoma, with MALME-3M melanoma, in the assay with MDA-MB-435 and in the assay with NCI/ADR-RES ovarian was > 100 µM in each case. In addition, the TGI with RXF 393 renal, with SF-268 CNS and in the assay with TK-10 renal was > 100 µM throughout.
As to `O=C1/C(=C\c2ccc(F)cc2)CN(C(=O)c2ccccc2)C/C1=C\c1ccc(F)cc1`, the GI50 in the assay with CAKI-1 renal was 2.82 µM; in the assay with LOX IMVI melanoma it was 1.41 µM; in the assay with MALME-3M melanoma it was 3.66 µM; with MDA-MB-435 it was 2.11 µM; in the assay with MOLT-4 leukemia it was 2.56 µM; in the assay with NCI/ADR-RES ovarian, 4.14 µM. In addition, the results for the GI50 in the assay on RXF 393 renal and with TK-10 renal were 1.99 µM and 4.21 µM, respectively. The TGI was 66.2 µM in the assay with CAKI-1 renal; 3.18 µM with LOX IMVI melanoma; 12.2 µM in the assay on MALME-3M melanoma; 5.65 µM with MDA-MB-435; 72.5 µM with MOLT-4 leukemia; > 100 µM in the assay with NCI/ADR-RES ovarian. Besides, the TGI in the assay on RXF 393 renal came to 4.85 µM; in the assay on TK-10 renal, 17.3 µM.
Turning to `COc1c(O)c(OC)c2oc(-c3ccc(O)c(O)c3)c(OC)c(=O)c2c1O`, the TGI with CAKI-1 renal is > 100 µM; with KM12 colon, > 100 µM; in the assay with LOX IMVI melanoma, 95.9 µM; in the assay with MALME-3M melanoma it was 68 µM; in the assay on MDA-MB-435, 56.7 µM; in the assay with MOLT-4 leukemia it was > 100 µM. Further, the TGI in the assay on NCI/ADR-RES ovarian was > 100 µM; in the assay with SF-268 CNS, 10.3 µM; with TK-10 renal, 99.5 µM.
In the case of `CCOC(=O)c1ccc(Nc2sc(C(=O)c3ccc(Br)cc3)c(N)c2C#N)cc1`, the GI50 in the assay on CAKI-1 renal is 1.73 µM; in the assay with KM12 colon, 0.775 µM; with LOX IMVI melanoma it was 1.64 µM; in the assay with MALME-3M melanoma it was 3.66 µM; in the assay on MDA-MB-435, 0.257 µM; in the assay on MOLT-4 leukemia, 4.61 µM. The GI50 with NCI/ADR-RES ovarian is 0.842 µM; in the assay on RXF 393 renal, 1.78 µM; in the assay on SF-268 CNS, 2.56 µM. The TGI with CAKI-1 renal was > 100 µM; with KM12 colon it was > 100 µM; in the assay with LOX IMVI melanoma, > 100 µM; with MALME-3M melanoma, > 100 µM; with MDA-MB-435 it was 1.01 µM; with MOLT-4 leukemia, > 100 µM. The TGI in the assay on NCI/ADR-RES ovarian, in the assay with RXF 393 renal and with SF-268 CNS was > 100 µM throughout.
As to `Cn1cc(C2=C(c3ccccc3[N+](=O)[O-])C(=O)NC2=O)c2ccccc21`, the GI50 in the assay on CAKI-1 renal is 3.87 µM; with KM12 colon, 3.25 µM; in the assay on LOX IMVI melanoma it was 3.13 µM; with MALME-3M melanoma, 9.55 µM; in the assay with MDA-MB-435 it was 4.82 µM; in the assay with NCI/ADR-RES ovarian, 6.32 µM. Moreover, the GI50 in the assay on RXF 393 renal was 1.61 µM; in the assay on SF-268 CNS, 5.64 µM; in the assay with TK-10 renal, 5.58 µM. Further, the TGI in the assay on CAKI-1 renal was > 20.8 µM; in the assay on KM12 colon it was 13.3 µM; in the assay with LOX IMVI melanoma, > 25 µM; in the assay on MALME-3M melanoma, > 20.8 µM; in the assay with MDA-MB-435 it was > 25 µM; with NCI/ADR-RES ovarian it was > 21.6 µM. For the same molecule, the TGI in the assay with RXF 393 renal came out at 7.19 µM; in the assay on SF-268 CNS, 18 µM; in the assay on TK-10 renal, 18.6 µM.
On to `C=C1CC2CCCC12C=O` (stereo not given), for which the TGI in the assay with CAKI-1 renal, with KM12 colon, in the assay on LOX IMVI melanoma, in the assay on MALME-3M melanoma, in the assay with MDA-MB-435 and with MOLT-4 leukemia was > 10 µM in each case. The TGI in the assay on NCI/ADR-RES ovarian, in the assay on SF-268 CNS and in the assay on TK-10 renal was > 10 µM in each case.
For the molecule `C[C@]12CCc3nc(Nc4cccc(O)c4)sc3C1=CC[C@@H]1[C@@H]2CC[C@]2(C)/C(=N\NC(N)=S)CC[C@@H]12`, the GI50 is 1.64 µM with CAKI-1 renal; 1.52 µM with LOX IMVI melanoma; 1.6 µM in the assay on MALME-3M melanoma; 1.76 µM with MDA-MB-435; 0.765 µM in the assay with MOLT-4 leukemia; 3.07 µM in the assay on NCI/ADR-RES ovarian. Besides, the GI50 was 0.574 µM with RXF 393 renal, 1.66 µM in the assay on SF-268 CNS and 1.9 µM in the assay on TK-10 renal. The TGI is 3.26 µM with CAKI-1 renal; 2.85 µM in the assay with LOX IMVI melanoma; 3.51 µM in the assay with MALME-3M melanoma; 4.55 µM in the assay on MDA-MB-435; 6.9 µM with MOLT-4 leukemia; > 100 µM with NCI/ADR-RES ovarian. Moreover, the TGI in the assay with RXF 393 renal is 2.19 µM; in the assay with SF-268 CNS, 4.45 µM; in the assay on TK-10 renal, 4.4 µM.
Turning to `CCC(CC)c1nc(Nc2ccc(C(=O)OC)cc2)c2ccccc2n1`, the GI50 in the assay with CAKI-1 renal was 5.74 µM; in the assay with KM12 colon, 8.01 µM; in the assay on LOX IMVI melanoma, 11.1 µM; in the assay on MDA-MB-435 it was > 18.3 µM; with MOLT-4 leukemia, 1.41 µM; in the assay on NCI/ADR-RES ovarian, 24.3 µM. Moreover, the GI50 was 8.34 µM in the assay on RXF 393 renal, 6.69 µM in the assay with SF-268 CNS and 13.2 µM with TK-10 renal. Moreover, the TGI is 11.8 µM with CAKI-1 renal; 18 µM in the assay on KM12 colon; 31.7 µM in the assay on LOX IMVI melanoma; > 25.6 µM with MDA-MB-435; 3.67 µM in the assay on MOLT-4 leukemia; > 34.7 µM in the assay with NCI/ADR-RES ovarian. For the same molecule, the TGI turned out to be 21.3 µM in the assay with RXF 393 renal, 19.1 µM with SF-268 CNS and 25.7 µM with TK-10 renal.
For `Cc1c(O)c2ccccc2oc1=O`, the TGI in the assay on CAKI-1 renal, in the assay on KM12 colon, in the assay with LOX IMVI melanoma, in the assay with MALME-3M melanoma, in the assay on MDA-MB-435 and with MOLT-4 leukemia was > 100 µM each time. For the same molecule, the TGI in the assay with NCI/ADR-RES ovarian, in the assay with RXF 393 renal and in the assay with SF-268 CNS was > 100 µM in each case.
Regarding `Cc1cc(=O)[nH]c(N/N=C/c2cc(Br)ccc2O)n1`, the GI50 is 1.44 µM in the assay on CAKI-1 renal; 0.869 µM in the assay with KM12 colon; 0.634 µM with LOX IMVI melanoma; 1.77 µM in the assay with MDA-MB-435; 0.432 µM in the assay on MOLT-4 leukemia; 0.35 µM with NCI/ADR-RES ovarian. The results for the GI50 in the assay on RXF 393 renal, in the assay on SF-268 CNS and with TK-10 renal were 3.35 µM, 0.728 µM and 21.5 µM, respectively. Further, the TGI was 4.89 µM with CAKI-1 renal; > 100 µM in the assay on KM12 colon; > 100 µM in the assay with LOX IMVI melanoma; 81.5 µM with MDA-MB-435; 15.5 µM with MOLT-4 leukemia; > 100 µM with NCI/ADR-RES ovarian. The TGI with RXF 393 renal, in the assay on SF-268 CNS and in the assay on TK-10 renal was > 100 µM throughout.

The values are drawn from PubChem BioAssay (NCI).
